Experimental data reported in patent publication US20080206881A1, “DIAGNOSTIC MARKER FOR NEURODEGENERATIVE DISEASES” (priority 2007, published 2008).
“Also recorded” adds a separate entry of the source. Like-named read-outs stand apart in the source and are kept apart here.

Assays:
ALS patients [1] = test: Clinical outcome (ALSFRS) of ALS patients with or without continuous high-dose vitamin E; assay type: in vivo, human; details: ALSFRS after 1 yr of melatonin treatment
Description: Remarkably, most of these patients (n=12) had already been on high-dose vitamin E, another antioxidant, for 10.4±2.5 months before starting the melatonin treatment.

Alzheimer's disease (AD) = details: in vivo; cited from earlier work
ALS patients [2] = test: Serum protein carbonyl determination in ALS patients (2,4-dinitrophenylhydrazine method); assay type: in vivo, human; details: for serum protein carbonyl level under high-dose vitamin E: ALS patients (n=12) on high-dose vitamin E for 10.4±2.5 months before starting melatonin
Description: Protein carbonyl content of blood serum and other body fluids can be determined according to the 2,4-dinitrophenylhydrazine method described by Levine et al. (Levine Methods Enzymol 1990: 186: 464-478). The protein content can be measured according to Lowry et al. (Lowry J Biol Chem 1951: 193: 265-275) to enable a normalization of the protein carbonyl level. Other suitable methods and reagents known in the field to measure protein content and/or the content of protein carbonyls can also be used. Protein carbonyl measurements were performed in the serum of 19 consecutively admitted ALS patients (61.7±1.9 yr, 12 males, […] daily as suppositories at bedtime) and of ten healthy controls (61.2±2.0 years, five males, five females). Protein carbonyls were determined by a variant of the 2,4-dinitrophenylhydrazine method (Levine Methods Enzymol 1990: 186: 464-478). Serum was diluted 1:10 with ice-cold 5-mM pf potassium phosphate buffer, pH 7.5, containing leupeptin (0.5 μg/mL), aprotinin (0.5 μg/mL), and pepstatin A (0.7 μg/mL); 300 μL was used for a single determination. Deviations from the original procedure concerned elimination of the chromogen: protein pellets were washed three times with 1 mL of ethanol/ ethylacetate (1:1); particular attention was given to thorough resuspension (vortexing) and complete removal of the supernatant using Pasteur pipettes, and thereafter, stripes of blotting paper. Protein was measured according to Lowry et al. (Lowry J Biol Chem 1951: 193: 265-275).

ALS = details: cited from earlier work; for clinical efficacy in ALS: clinical setting, literature
ALS mouse model = details: high-dose oral melatonin; U.S. Pub. No. 2004/0192745; cited from earlier work
ALS patients [3] = details: cited from earlier work

## vitamin E
ALS patients [1]
  clinical outcome (ALSFRS): did not reveal any beneficial effect
Alzheimer's disease (AD)
  disease progression in AD: slowing of disease progression
ALS patients [2]
  serum protein carbonyl level under high-dose vitamin E: does not change the level of serum protein carbonyls
ALS patients [2]; listed as Vitamin E
  serum protein carbonyl level under high-dose vitamin E: does not decrease the serum protein carbonyl level
ALS; 10-yr prospective study with over 900,000 individuals, regular intake of vitamin E
  risk of developing ALS: decreased risk of developing ALS
ALS
  clinical efficacy in ALS: did not reveal any beneficial effect; also recorded: none of the antioxidative compounds tested, including vitamin E, proved to be effective
ALS; listed as Vitamin E
  clinical efficacy in ALS: ineffective in ALS treatment

## COc1ccc2[nH]cc(CCNC(C)=O)c2c1 [melatonin]
ALS patients [2]; ALS patients n=19, 300 mg melatonin daily as suppositories at bedtime, mean treatment time 4.68±0.22 months, versus matched healthy controls n=10
  serum protein carbonyl content after melatonin treatment: decrease to levels of matched healthy controls; also recorded: normalized to control values; also recorded: fully reverted to control levels; also recorded: normalizes the serum protein carbonyl level to control level
ALS mouse model
  survival of ALS mouse model: prolongation of survival; also recorded: exhibit efficacy

## Nc1nc2ccc(OC(F)(F)F)cc2s1 [RILUZOLE®, 2-amino-6-(trifluoromethoxxy)benzothiazole]
ALS patients [3]
  other important outcome measures: lacked benefit
  side effects: asthenia, nausea, anorexia, diarrhea, headache, and increase in liver transaminases; also recorded: enhances catabolism
